Experimental data as given in patent publication US20250387382A1, “METHODS OF TREATING ESSENTIAL TREMOR” (Praxis Precision Medicines, Inc., priority 2023, published 2025).
“Also recorded” adds a separate entry of the source.

Experiments:
Type in all cases: in vivo, human
[1] = Phase 1 trial: effect of a high-fat, high-calorie meal on pharmacokinetics; conditions: 120 mg dose, steady state, healthy adult participants
Procedure: The effect of a high-fat, high-calorie meal on the pharmacokinetics of Compound I was evaluated in healthy participants who had previously received Compound 1 under fasted conditions in a Phase 1 trial. The effect of a high-fat, high-calorie meal on the PK of Compound 1 was evaluated at the 120 mg dose level after healthy adult participants had titrated to reach steady-state exposure. Following administration of 120 mg dose in the fed state or fasted state, the maximum plasma drug concentration (Cmax) and AUC, values were similar. Based on this analysis, Compound 1 may be administered without regard to food.

patients with ET = assay: Randomized withdrawal sub-study / blinded 6-week crossover period of the Phase 2 extension
Text: At the re-randomization visit for the cross-over period, and every 7 days in that portion of the study, the treatment regimen was assigned by the IRT and dispensed by site pharmacist for direct-to-patient (DTP) shipping. In the cross-over period of the trial, all participants were centrally assigned to randomize to remain on the current regimen of Compound 1 or placebo using an IRT. After 3 weeks, participants receiving placebo were switched over to Compound 1 following the regimen described in Table 3. The IRT assigned treatment regimen based on the Tetras ADL response criteria after day 7.
The open-label protocol was amended to further assess the criteria to be used in the upcoming randomized withdrawal study in Phase 3 (as described in Example 3). In this sub-study, patients were re-randomized in a blinded-fashion to either receive placebo or continue to receive Compound 1. Twenty-one patients who completed assessments at week 14 of the Open Label Extension were eligible to participate in the blinded sub-study.
Patients were evaluated weekly over a total of 6 weeks, with 11 patients assigned to Compound 1 and 10 patients assigned to placebo for the initial 3-week period, crossing over to either placebo or Compound 1 for an additional 3-week period. Blinded rescue was triggered for patients on placebo if loss in the mADL11 exceeded 2 points at any timepoint.
The results of the Phase 2 trials with ulixacaltamie (see Examples 1 and 2) support the efficacy and safety of ulixacaltamide in patients with ET. […] In the double-blind (DB) portion of the Phase 2 study, the rescored TETRAS-ADL items 1-11 (mADL11) score decreased more in participants randomized to Compound 1 compared with placebo after 56 days of dosing, with least square mean (LSM standard error [SE]) scores of ([…] [0.81]) compared with placebo (−0.87 [0.95]). The LSM (95% confidence interval [CI]) treatment difference was −1.82 (95% CI: −3.565, −0.066; with a nominal p value of <0.05). In the Phase 2 extension period, 20 participants completed a blinded 6-week crossover period. Participants were randomized in blinded fashion to either 3 weeks of Compound 1 60 mg or placebo. Rescue treatment (Compound 1) was offered to participants if their mADL11 worsened by a preset threshold. […] None of the Compound 1-treated participants and 9 of 21 placebo-treated participants qualified for and received rescue treatment within the 3-week period.

[2] = tested on: healthy participants and patients with ET; assay: Safety across the clinical development program
[3] = patients who switched from Compound 1 to placebo

SMILES: CC(C)(C)NC(=O)CN1CCC(CNC(=O)c2cc(F)cc(Cl)c2)CC1 [Compound 1, N-((1-(2-(tert-butylamino)-2-oxoethyl)piperidin-4-yl)methyl)-3-chloro-5-fluorobenzamide]
- AUC, fed state vs fasted state [1]: similar
- Cmax, fed state vs fasted state [1]: similar
- Patients who maintained their mADL11 within 3-points compared to baseline (patients with ET; 52% on placebo): 85%
- Participants with maintenance of response (patients with ET; crossover period, Compound 1 60 mg, 11 of 21 on placebo): 17 of 20
- Safety signals (patients with ET; in vivo): No new safety signals emerged; also recorded: No new safety signal was identified
- Average loss of effect in mADL11 per week (patients with ET; [3]): 47%
- Mean loss of effect in mADL11 (patients with ET; [3]): −1.15 points/week
- Improvement in global mean change in mADL11 per week (patients with ET; periods receiving Compound 1): 6%
- Mean improvement in mADL11 (patients with ET; periods receiving Compound 1): 0.16 points/week
- Participants who qualified for and received rescue treatment (patients with ET; within the 3-week period, 9 of 21 on placebo): None
- Deaths or SAEs considered related to study drug ([2]; human, in vivo): No deaths or serious adverse events (SAEs)
- Suicide attempts or pregnancies reported ([2]; human, in vivo): no suicide attempts or pregnancies
- Safety profile ([2]; modified release formulation, titration, 5 to 120 mg for up to 129 days): favorable safety profile
- Tolerability ([2]; up to 129-days of daily administration, 5 to 120 mg, titration schedule): generally well tolerated
